How the values were obtained:
Conditions in all cases: exposure time: 72 h
SF268 [1] = test: Bliss synergy score (Combenefit); higher = more synergy; extreme values may be limits of the assay
Experimental: (§1)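 The same 6x6 dose matrices of drug pairs on glioma cell lines (72 h, CellTiter-Glo viability normalised to DMSO, triplicate) were scored with Combenefit. The Loewe, Bliss and HSA synergy scores are given; paper thresholds are Loewe 7.8 and Bliss 2.5.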

U118 [2] = test: as above
Experimental: as §1

U251 [3] = test: as above
Experimental: as §1

SF539 [4] = test: as above
Experimental: as §1

U87 [5] = test: as above
Experimental: as §1

T98G [6] = test: as above
Experimental: as §1

SNB75 [7] = test: as above
Experimental: as §1

AM-38 [8] = test: as above
Experimental: as §1

KNS-42 [9] = test: as above
Experimental: as §1

SF268 [10] = test: HSA synergy score (Combenefit); higher = more synergy
Experimental: as §1

U118 [11] = test: as above
Experimental: as §1

U251 [12] = test: as above
Experimental: as §1

SF539 [13] = test: as above
Experimental: as §1

U87 [14] = test: as above
Experimental: as §1

T98G [15] = test: as above
Experimental: as §1

SNB75 [16] = test: as above
Experimental: as §1

AM-38 [17] = test: as above
Experimental: as §1

KNS-42 [18] = test: as above
Experimental: as §1

SF268 [19] = test: Loewe synergy score (Combenefit); higher = more synergy; extreme values may be limits of the assay
Experimental: as §1

U118 [20] = test: as above
Experimental: as §1

U251 [21] = test: as above
Experimental: as §1

SF539 [22] = test: as above
Experimental: as §1

U87 [23] = test: as above
Experimental: as §1

T98G [24] = test: as above
Experimental: as §1

SNB75 [25] = test: as above
Experimental: as §1

AM-38 [26] = test: as above
Experimental: as §1

KNS-42 [27] = test: as above
Experimental: as §1

SF268 [28] = test: Chou-Talalay combination index (dimensionless); higher = less synergy (more antagonism)
Experimental: (§2)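 Glioma cell lines were treated for 72 h with a 6x6 matrix of two drugs, each in twofold dilutions with the top dose at the single-drug IC50. Viability was read by CellTiter-Glo and normalised to DMSO controls, in triplicate. The Chou-Talalay combination index was computed by the median effect principle; CI < 0.8 means synergy.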

U118 [29] = test: as above
Experimental: as §2

U251 [30] = test: as above
Experimental: as §2

T98 = test: as above
Experimental: as §2

SF539 [31] = test: as above
Experimental: as §2

AM38 = test: as above
Experimental: as §2

U87 [32] = test: as above
Experimental: as §2

SNB75 [33] = test: as above
Experimental: as §2

KNS42 = test: as above
Experimental: as §2

SMILES	Bliss synergy score (SF268 [1])	Bliss synergy score (U118 [2])	Bliss synergy score (U251 [3])	Bliss synergy score (SF539 [4])	Bliss synergy score (U87 [5])	Bliss synergy score (T98G [6])	Bliss synergy score (SNB75 [7])	Bliss synergy score (AM-38 [8])	Bliss synergy score (KNS-42 [9])	HSA synergy score (SF268 [10])	HSA synergy score (U118 [11])	HSA synergy score (U251 [12])	HSA synergy score (SF539 [13])	HSA synergy score (U87 [14])	HSA synergy score (T98G [15])	HSA synergy score (SNB75 [16])	HSA synergy score (AM-38 [17])	HSA synergy score (KNS-42 [18])	Loewe synergy score (SF268 [19])	Loewe synergy score (U118 [20])	Loewe synergy score (U251 [21])	Loewe synergy score (SF539 [22])	Loewe synergy score (U87 [23])	Loewe synergy score (T98G [24])	Loewe synergy score (SNB75 [25])	Loewe synergy score (AM-38 [26])	Loewe synergy score (KNS-42 [27])	Chou-Talalay combination index (SF268 [28])	Chou-Talalay combination index (U118 [29])	Chou-Talalay combination index (U251 [30])	Chou-Talalay combination index (T98)	Chou-Talalay combination index (SF539 [31])	Chou-Talalay combination index (AM38)	Chou-Talalay combination index (U87 [32])	Chou-Talalay combination index (SNB75 [33])	Chou-Talalay combination index (KNS42)
CC(=O)O[C@@]12CO[C@@H]1C[C@H](O)[C@@]1(C)C(=O)[C@H](O)C3=C(C)[C@@H](OC(=O)[C@H](O)[C@@H](NC(=O)OC(C)(C)C)c4ccccc4)C[C@@](O)([C@@H](OC(=O)c4ccccc4)[C@H]21)C3(C)C [Docetaxel] + CCCCCCCCCCCC1=C(O)C(=O)C=C(O)C1=O [Embelin]	0.0571	0.219	3.66	0.24	0.7	0.71	0.144	0	3.74	1.82	0.358	9.62	3.01	0.7	2.71	3.76	1.16	6.6	0	0.129	0.944	2.91	0.7	2.71	0.195	0.74	3.76	1.01	0.982	0.659	0.911	0.835	1.08	0.827	0.849	0.349
CC(=O)O[C@@]12CO[C@@H]1C[C@H](O)[C@@]1(C)C(=O)[C@H](O)C3=C(C)[C@@H](OC(=O)[C@H](O)[C@@H](NC(=O)OC(C)(C)C)c4ccccc4)C[C@@](O)([C@@H](OC(=O)c4ccccc4)[C@H]21)C3(C)C [Docetaxel] + O=c1[nH]c2ccccc2n1C1CCN(Cc2ccc(-c3[nH]c4cc5ncnc5cc4nc3-c3ccccc3)cc2)CC1 [Akt inhibitor VIII]	1.32	5.46	0.156	0.217	1.56	0	0.989	0.132	1.6	11.6	8.23	0.629	2.57	4.37	0	6.81	11	15.2	3.03	3.76	0	1.09	2.83	0	0.96	5.53	10.8	0.885	0.9	0.933	0.84	0.939	0.894	0.625	0.796	0.838
C=CCc1cccc(/C=N/NC(=O)CN2CCN(Cc3ccccc3)CC2)c1O [PAC-1] + CCOc1nc(NC(=O)Cc2cc(OC)ccc2OC)cc(N)c1C#N [JNK inhibitor VIII]	1.09	0.51	2.01	3.99	0.501	0	0.0865	0	0	5.39	2.56	3.65	7.4	5.02	3.49	6.97	3.74	11.2	0.606	2.38	0.13	2.49	4.97	1.34	5.04	0.484	7.1	0.951	0.622	0.85	0.982	0.58	0.965	0.794	0.91	0.944
C#Cc1cccc(Nc2ncnc3cc(OCCOC)c(OCCOC)cc23)c1 [Erlotinib] + CCCCCCCCCCCC1=C(O)C(=O)C=C(O)C1=O [Embelin]	0.32	0.526	10.1	2.46	0	0	0.771	0	5.81	4.82	2.42	14.6	8.08	0	1.02	6.85	0	10.4	1.59	2.33	10.4	1.08	0	0.68	1.7	0	5.93	0.795	0.853	0.632	0.961	0.728	1.08	1.14	0.836	0.797
Nc1ccn([C@@H]2O[C@H](CO)[C@@H](O)C2(F)F)c(=O)n1 [Gemcitabine] + C=CCc1cccc(/C=N/NC(=O)CN2CCN(Cc3ccccc3)CC2)c1O [PAC-1]	0.0746	0	0.174	0.236	0	0.518	0.278	0	0.716	3.55	1.58	1.09	3.14	0	3.73	5.49	0.966	22.7	0.48	0	0.777	0.062	0	0.986	0.834	0.966	21.9	0.965	0.999	0.722	0.935	0.863	1	1.06	0.978	0.675
Nc1ccn([C@@H]2O[C@H](CO)[C@@H](O)C2(F)F)c(=O)n1 [Gemcitabine] + Cc1cc([C@@H](C)Nc2ccccc2C(=O)O)c2nc(N3CCOCC3)cc(=O)n2c1 [AZD6482]	0.693	1.86	1.85	0.274	0	3.93	0	0.237	2.32	7.02	10.3	1.85	10.4	0	10.5	4.1	4.54	5.37	1.75	2.14	1.85	2.33	0	5.66	3.53	3.23	5.37	0.783	0.887	0.758	0.889	0.738	0.967	1.15	0.607	0.868
C=CCc1cccc(/C=N/NC(=O)CN2CCN(Cc3ccccc3)CC2)c1O [PAC-1] + Cc1cc([C@@H](C)Nc2ccccc2C(=O)O)c2nc(N3CCOCC3)cc(=O)n2c1 [AZD6482]	0.355	0.918	1.75	0	2.96	5.94	10.9	8.49	2.36	4.9	4.06	1.75	0.0112	2.96	11.9	21.4	10.7	2.36	0.594	1.77	1.75	0.0112	2.96	10.2	14.6	10.2	2.36	0.979	0.962	0.847	0.865	1.01	0.845	0.635	0.976	0.882
CCC(=O)N1CCN(c2ccc(-n3c(=O)ccc4cnc5ccc(-c6cnc7ccccc7c6)cc5c43)cc2C(F)(F)F)CC1 [Torin1] + C#Cc1cccc(Nc2ncnc3cc(OCCOC)c(OCCOC)cc23)c1 [Erlotinib]	0.392	2.65	25.4	0.68	0.359	4.09	15.6	0	1.13	15.2	20.5	35.3	14	11.5	11.1	18.2	0	3.86	10.5	13.7	32.9	9.6	6.1	11	10.2	0	3.69	0.819	0.744	0.279	0.249	0.678	0.754	0.58	0.61	0.917
CC(=O)O[C@@]12CO[C@@H]1C[C@H](O)[C@@]1(C)C(=O)[C@H](O)C3=C(C)[C@@H](OC(=O)[C@H](O)[C@@H](NC(=O)OC(C)(C)C)c4ccccc4)C[C@@](O)([C@@H](OC(=O)c4ccccc4)[C@H]21)C3(C)C [Docetaxel] + N#CC(c1ccnc(NCCc2cccnc2)n1)c1nc2ccccc2s1 [AS601245]	0.207	0.0703	5.06	0.511	0.347	4.9	2.39	0.0376	3.75	4.46	2.85	8.45	7.49	1.81	13	10.1	0.465	11.3	0.451	0.96	0.486	2.08	0.835	10.3	5.22	0.0158	3.02	0.887	0.875	0.673	0.553	0.69	1.13	0.00672	0.738	0.832

From the supplement of paper PMC7287046
